US9428504B2, “7-hydroxy-spiropipiperidine indolinyl antagonists of P2Y1 receptor” (BRISTOL-MYERS SQUIBB COMPANY, priority 2012, dated 2016)
Where a name gives a salt, the structure may show the parent alone.

Key:
[1] = target: cloned human P2Y1 receptors (Homo sapiens (Human), UniProt P47900); test: Binding Assay B: Scintillation Proximity Assay (SPA) for P2Y1 binding; conditions: SPA, [33P] 2MeS-ADP displacement; read-out: P2Y1 Ki (nM) using binding assay B
Experimental: A SPA membrane binding assay was used to identify inhibitors of [^33P] […] Binding reactions were performed in 384-well OptiPlates (PerkinElmer Life Sciences, Cat #6007299) in a volume of 50 μL containing ˜15 fmol of P2Y1 receptor (1.7 μg of total protein), 0.3 nM [^33P] […] Reactions were allowed to proceed to completion at room temperature for 1 hour followed by centrifugation of the plate for 5 min. About 40 μL of the aqueous solution was aspirated. Plates were sealed and the [^33P]

[2] = tested on: human platelet rich plasma (PRP); test: ADP induced platelet aggregation assay; conditions: Homo sapiens, Platelet, read-out: PA IC50 (μM) @ 10 μM ADP, platelet aggregation induced by 10 μM ADP, human PRP
Experimental: The ability of P2Y1 antagonists covered in the present invention to inhibit platelet aggregation induced by 10 μM ADP was tested using human platelet rich plasma (PRP) as described in Platelet Protocols: Research and Clinical Laboratory Procedures (White, M. M. et al., Academic Press (1999)). Human blood was collected in 30 μM (final concentration in blood) argatroban (GSK) as the anticoagulant at a ratio of 1 ml per 9 ml of blood. The PRP was isolated by centrifugation at 170 g for 12 minutes. The platelet poor plasma (PPP) was used as the blank for optical aggregometry. Compounds of the present invention in DMSO solution was preincubated with 250 μl PRP at 37° C. for 1 minute with stirring speed of 1000 rpm. Aggregation was initiated by addition of 2.5 μl of 1 mM ADP (Chrono-log, Havertown, Pa.) for a final ADP concentration of 10 μM. Platelet aggregation was monitored using Optical Aggregometer (Chrono-log, Havertown, Pa.) and the area under the curve (AUC) at 5 minute was measured. IC50 was calculated using vehicle control as 0% inhibition.

Chain of cloned human P2Y1 receptors (P47900 whole entry): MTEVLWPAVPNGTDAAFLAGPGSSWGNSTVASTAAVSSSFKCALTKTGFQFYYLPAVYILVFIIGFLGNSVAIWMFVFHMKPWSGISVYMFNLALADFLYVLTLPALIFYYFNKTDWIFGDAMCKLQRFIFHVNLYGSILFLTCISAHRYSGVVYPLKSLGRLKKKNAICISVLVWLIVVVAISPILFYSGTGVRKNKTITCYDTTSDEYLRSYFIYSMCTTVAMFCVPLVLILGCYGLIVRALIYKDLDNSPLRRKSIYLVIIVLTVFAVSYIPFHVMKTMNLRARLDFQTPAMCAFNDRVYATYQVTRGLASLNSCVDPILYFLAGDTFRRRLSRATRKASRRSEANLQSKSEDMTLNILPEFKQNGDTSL

`CC(C)(C)CN1CCC2(CC1)CN(c1ccccc1NC(=O)Nc1nc3ccc(F)nc3s1)c1c(O)ccc(Cl)c12` [Example 170] was tested, and the Ki [1] was 6.5 nM and the IC50 [2] was 0.5 µM.

Work on `COC(=O)c1ccc2nc(NC(=O)Nc3ccccc3N3CC4(CCN(CC(C)(C)C)CC4)c4c(Cl)ccc(O)c43)sc2c1` [Example 41, Methyl 2-(3-(2-(4-Chloro-7-hydroxy-1′-neopentylspiro[indoline-3,4′-piperidine]-1-yl)phenyl)ureido)benzo [d]thiazole-6-carboxylate] yielded a Ki [1] of 7.2 nM and an IC50 [2] of 0.7 µM.

With `CC(C)(C)CN1CCC2(CC1)CN(c1ccccc1NC(=O)Nc1csc(Cl)n1)c1c(O)ccc(C(F)(F)F)c12` [Example 18, 1-(2-Chlorothiazol-4-yl)-3-(2-(7-hydroxy-1′-neopentyl-4-(trifluoromethyl)spiro[indoline-3,4′-piperidine]-1-yl)phenyl)urea] the Ki [1] was 6.2 nM and the IC50 [2] was 0.1 µM.

Work on `CC(C)(C)CN1CCC2(CC1)CN(c1ccccc1NC(=O)Nc1nc3ccc(Cl)nc3s1)c1c(O)ccc(C(F)(F)F)c12` [Example 175, 1-(5-Chlorothiazolo[5,4-b]pyridin-2-yl)-3-(2-(7-hydroxy-1′-neopentyl-4-(trifluoromethyl)spiro[indoline-3,4′-piperidine]-1-yl)phenyl)urea] yielded a Ki [1] of 13.4 nM and an IC50 [2] of 0.5 µM.

Molecule `CC(C)(C)CN1CCC2(CC1)CN(c1ccccc1NC(=O)Nc1nc3c(s1)CN(CC(F)(F)F)CC3)c1c(O)ccc(Cl)c12` [Example 71, 1-(2-(4-Chloro-7-hydroxy-1′-neopentylspiro[indoline-3,4′-piperidine]-1-yl)phenyl)-3-(5-(2,2,2-trifluoroethyl)-4,5,6,7-tetrahydrothiazolo[5,4-c]pyridin-2-yl)urea] has a Ki [1] of 11.1 nM and an IC50 [2] of 0.3 µM.

Molecule `CC(C)(C)CN1CCC2(CC1)CN(c1ccccc1NC(=O)Nc1ccc(OC(F)(F)F)cc1)c1c(O)ccc(C(F)(F)F)c12` [Example 10, 1-(2-(7-Hydroxy-1′-neopentyl-4-(trifluoromethyl)spiro[indoline-3,4′-piperidine]-1-yl)phenyl)-3-(4-(trifluoromethoxy)phenyl)urea] has a Ki [1] of 4.5 nM and an IC50 [2] of 0.1 µM.

For `CC(C)(C)CN1CCC2(CC1)CN(c1ccccc1NC(=O)Nc1nc3c(s1)CSCC3)c1c(O)ccc(Cl)c12` [Example 49, 1-(2-(4-Chloro-7-hydroxy-1′-neopentylspiro[indoline-3,4′-piperidine]-1-yl)phenyl)-3-(6,7-dihydro-4H-thiopyrano[4,3-d]thiazol-2-yl)urea, TFA], the Ki [1] was 6.5 nM and the IC50 [2] was 0.3 µM.

`COc1ccc2nc(NC(=O)Nc3ccccc3N3CC4(CCN(CC(C)(C)C)CC4)c4c(-c5nc6cc(F)ccc6s5)ccc(O)c43)sc2c1` [Example 146, 1-(2-(4-(5-Fluorobenzo[d]thiazol-2-yl)-7-hydroxy-1′-neopentylspiro[indoline-3,4′-piperidin]-1-yl)phenyl)-3-(6-methoxybenzo[d]thiazol-2-yl)urea] was tested, and the Ki [1] was 11.2 nM and the IC50 [2] was 0.6 µM.

With `CC(C)(C)CN1CCC2(CC1)CN(c1ccccc1NC(=O)Nc1ccc(C(F)(F)F)cc1)c1c(O)ccc(C(F)(F)F)c12` [Example 22, 1-(2-(7-Hydorxy-1′-neopentyl-4-(trifluoromethyl)spiro[indoline-3,4′-piperidine]-1-yl)phenyl)-3-(4-(trifluoromethyl)phenyl)urea] the Ki [1] was 4.4 nM and the IC50 [2] was 0.2 µM.

For `COc1ccc2nc(-c3ccc(O)c4c3C3(CCN(CC(C)(C)C)CC3)CN4c3ccccc3NC(=O)Nc3nc4ccc(Cl)cc4s3)sc2c1` [Example 131, 1-(6-Chlorobenzo[d]thiazol-2-yl)-3-(2-(7-hydroxy-4-(6-methoxybenzo[d]thiazol-2-yl)-1′-neopentylspiro[indoline-3,4′-piperidin]-1-yl)phenyl)urea], the Ki [1] was 22.5 nM and the IC50 [2] was 1 µM.

`CC(C)(C)CN1CCC2(CC1)CN(c1ccccc1NC(=O)Nc1ccc(OC(F)(F)F)cc1)c1c(O)cc(F)c(-c3ccc(C(F)(F)F)nc3)c12` [Example 160, 1-(2-(5-Fluoro-7-hydroxy-1′-neopentyl-4-(6-(trifluoromethyl)pyridin-3-yl)spiro[indoline-3,4′-piperidin]-1-yl)phenyl)-3-(4-(trifluoromethoxy)phenyl)urea] showed a Ki [1] of 199 nM and an IC50 [2] of 0.1 µM.

Work on `CC(C)(C)CN1CCC2(CC1)CN(c1ccccc1NC(=O)Nc1nc3c(s1)COCC3)c1c(O)ccc(Cl)c12` [Example 48, 1-(2-(4-Chloro-7-hydroxy-1′-neopentylspiro[indoline-3,4′-piperidine]-1-yl)phenyl)-3-(6,7-dihydro-4H-pyrano[4,3-d]thiazol-2-yl)urea, TFA] yielded a Ki [1] of 8 nM and an IC50 [2] of 0.4 µM.

With `COc1nsc(NC(=O)Nc2ccccc2N2CC3(CCN(CC(C)(C)C)CC3)c3c(Cl)ccc(O)c32)n1` [Example 50, 1-(2-(4-Chloro-7-hydroxy-1′-neopentylspiro[indoline-3,4′-piperidine]-1-yl)phenyl)-3-(3-methoxy-1,2,4-thiadiazol-5-yl)urea, TFA] the Ki [1] was 6.8 nM and the IC50 [2] was 0.3 µM.

Molecule `CC(C)(C)CN1CCC2(CC1)CN(c1ncccc1NC(=O)Nc1nc3ccc(F)cc3s1)c1c(O)ccc(Cl)c12` [Example 66, 1-(2-(4-Chloro-7-hydroxy-1′-neopentylspiro[indoline-3,4′-piperidine]-1-yl)pyridin-3-yl)-3-(6-fluorobenzo[d]thiazol-2-yl)urea] has a Ki [1] of 25.8 nM and an IC50 [2] of 1.2 µM.

`CC(C)(C)CN1CCC2(CC1)CN(c1ccccc1NC(=O)Nc1nc3ccc(F)cc3s1)c1c(O)c(F)cc(Cl)c12` [Example 100, 1-(2-(4-Chloro-6-fluoro-7-hydroxy-1′-neopentylspiro [indoline-3,4′-piperidine]-1-yl)phenyl)-3-(6-fluorobenzo[d]thiazol-2-yl)urea] showed a Ki [1] of 7.9 nM and an IC50 [2] of 0.2 µM.

With `CC(C)(C)CN1CCC2(CC1)CN(c1ccccc1NC(=O)Nc1nc3ccc(F)cc3s1)c1c(O)cc(F)c(F)c12` [Example 95, 1-(2-(4,5-Difluoro-7-hydroxy-1′-neopentylspiro [indoline-3,4′-piperidine]-1-yl)phenyl)-3-(6-fluorobenzo[d]thiazol-2-yl)urea] the Ki [1] was 14.7 nM and the IC50 [2] was 0.5 µM.

Molecule `CC(C)c1nc(NC(=O)Nc2ccccc2N2CC3(CCN(CC(C)(C)C)CC3)c3c(C(F)(F)F)ccc(O)c32)cs1` [Example 28, 1-(2-(7-Hydroxy-1′-neopentyl-4-(trifluoromethyl)spiro[indoline-3,4′-piperidine]-1-yl)phenyl)-3-(2-isopropylthiazol-4-yl)urea] has a Ki [1] of 6.6 nM and an IC50 [2] of 0.8 µM.

`COc1ccc2nc(-c3ccc(O)c4c3C3(CCN(CC(C)(C)C)CC3)CN4c3ccccc3NC(=O)Nc3csc(C(F)(F)F)n3)sc2c1` [Example 129, 1-(2-(7-Hydroxy-4-(6-methoxybenzo[d]thiazol-2-yl)-1′-neopentylspiro[indoline-3,4′-piperidin]-1-yl)phenyl)-3-(2-(trifluoromethyl)thiazol-4-yl)urea] gave a Ki [1] of 8.7 nM and an IC50 [2] of 0.7 µM.

`CC(C)(C)CN1CCC2(CC1)CN(c1ccccc1NC(=O)Nc1nc3ccc(Cl)nc3s1)c1c(O)cccc12` [Example 172, 1-(5-Chlorothiazolo[5,4-b]pyridin-2-yl)-3-(2-(7-hydroxy-1′-neopentylspiro[indoline-3,4′-piperidine]-1-yl)phenyl)urea] gave a Ki [1] of 5.3 nM and an IC50 [2] of 0.6 µM.

Work on `CCN(CC)S(=O)(=O)c1ccc(O)c2c1C1(CCN(CC(C)(C)C)CC1)CN2c1ccccc1NC(=O)Nc1ccc(C(C)(C)C)cc1` [Example 90, 1-(2-(3-(4-tert-Butylphenyl)ureido)phenyl)-N,N-diethyl-7-hydroxy-1′-neopentylspiro [indoline-3,4′-piperidine]-4-sulfonamide, trifluoroacetic acid salt] yielded a Ki [1] of 3.5 nM and an IC50 [2] of 0.2 µM.

`CC(C)(C)CN1CCC2(CC1)CN(c1ccccc1NC(=O)Nc1csc(Cl)n1)c1c(O)ccc(-c3nc4ccc(Br)cc4s3)c12` [Example 119, 1-(2-(4-(6-Bromobenzo[d]thiazol-2-yl)-7-hydroxy-1′-neopentylspiro[indoline-3,4′-piperidin]-1-yl)phenyl)-3-(2-chlorothiazol-4-yl)urea] was tested, and the Ki [1] was 18.4 nM and the IC50 [2] was 0.3 µM.

For `Cc1ccc(NC(=O)Nc2ccccc2N2CC3(CCN(CC(C)(C)C)CC3)c3c(Cl)ccc(O)c32)cc1F` [Example 56, 1-(2-(4-Chloro-7-hydroxy-1′-neopentylspiro[indoline-3,4′-piperidine]-1-yl)phenyl)-3-(3-fluoro-4-methylphenyl)urea], the Ki [1] was 6.4 nM and the IC50 [2] was 0.5 µM.

For `CC(C)CN1CCC2(CC1)CN(c1ccccc1NC(=O)Nc1nc3ccc(Cl)cc3s1)c1c(O)ccc(C#N)c12` [Example 80, 1-(6-Chlorobenzo[d]thiazol-2-yl)-3-(2-(4-cyano-7-hydroxy-1′-isobutylspiro[indoline-3,4′-piperidine]-1-yl)phenyl)urea], the Ki [1] was 14.4 nM and the IC50 [2] was 0.9 µM.

In the case of `CCSc1nsc(NC(=O)Nc2ccccc2N2CC3(CCN(CC(C)(C)C)CC3)c3c(C(F)(F)F)ccc(O)c32)n1` [Example 16, 1-(3-(Ethylthio)-1,2,4-thiadiazol-5-yl)-3-(2-(7-hydroxy-1′-neopentyl-4-(trifluoromethyl)spiro[indoline-3,4′-piperidine]-1-yl)phenyl)urea], the Ki [1] is reported as 8.1 nM and the IC50 [2] is reported as 0.3 µM.

`CC(C)(C)CN1CCC2(CC1)CN(c1ccccc1NC(=O)Nc1nc3ccc(Cl)cc3s1)c1c(O)cc(F)c(-c3ccc(C(F)(F)F)nc3)c12` [Example 162, 1-(6-Chlorobenzo[d]thiazol-2-yl)-3-(2-(5-fluoro-7-hydroxy-1′-neopentyl-4-(6-(trifluoromethyl)pyridin-3-yl)spiro[indoline-3,4′-piperidin]-1-yl)phenyl)urea] showed a Ki [1] of 65.5 nM and an IC50 [2] of 0.5 µM.
